Our source for the EC50 and Emax values is patent US20230373974A1, “MODULATORS OF CYSTIC FIBROSIS TRANSMEMBRANE CONDUCTANCE REGULATOR” (VERTEX PHARMACEUTICALS INCORPORATED, priority 2020, published 2023).

The target in this assay is T1, F508del in NIH 3T3 cells (Homo sapiens, UniProt P13569, DEL508-508).
T1 construct: expressed in transfected cells
The experiment in a line: 3T3 assay: membrane potential optical assay for F508del correction. The format is cell-based, mouse. Conditions: F508del NIH 3T3 cells; for EC50: incubated with compound 18-24 hours at 37° C., forskolin activation; for Emax: NIH3T3, efficacy compared to lumacaftor in combination with acutely added 300 nM Ivacaftor, read-out: 3T3 Max Activity (%). The source says: Membrane Potential Optical Methods for Assaying F508del Modulation Properties of Compounds The assay utilizes fluorescent voltage sensing dyes to measure changes in membrane potential using a fluorescent plate reader (e.g., FLIPR III, Molecular Devices, Inc.) as a readout for increase in functional F508del in NIH 3T3 cells. The driving force for the response is the creation of a chloride ion gradient in conjunction with channel activation by a single liquid addition step after the cells have previously been treated with compounds and subsequently loaded with a voltage sensing dye. 2. Identification of Corrector Compounds To identify correctors of F508del, a single-addition HTS assay format was developed. This HTS assay utilizes fluorescent voltage sensing dyes to measure changes in membrane potential on the FLIPR III as a measurement for increase in gating (conductance) of F508del in F508del NIH 3T3 cells. The F508del NIH 3T3 cell cultures were incubated with the corrector compounds at a range of concentrations for 18-24 hours at 37° C., and subsequently loaded with a redistribution dye. The driving force for the response is a Cl^− ion gradient in conjunction with channel activation with forskolin in a single liquid addition step using a fluorescent plate reader such as FLIPR III. […] Solutions […] Chloride-free bath solution: Chloride salts in Bath Solution #1 (above) are substituted with gluconate salts. 4. Cell Culture NIH3T3 mouse fibroblasts stably expressing F508del are used for optical measurements of membrane potential. The cells are maintained at 37° C. in 5% CO2 and 90% humidity in Dulbecco's modified Eagle's medium supplemented with 2 mM glutamine, 10% fetal bovine serum, 1×NEAA, b-ME, 1×pen/strep, and 25 mM HEPES in 175 cm^2 culture flasks. For all optical assays, the cells were seeded at ˜20,000/well in 384-well Matrigel-coated plates. For the correction assays, the cells are cultured at 37° C. with and without compounds for 16-24 hours.

T1 sequence (P13569 with tags, fused parts or gaps DEL508-508): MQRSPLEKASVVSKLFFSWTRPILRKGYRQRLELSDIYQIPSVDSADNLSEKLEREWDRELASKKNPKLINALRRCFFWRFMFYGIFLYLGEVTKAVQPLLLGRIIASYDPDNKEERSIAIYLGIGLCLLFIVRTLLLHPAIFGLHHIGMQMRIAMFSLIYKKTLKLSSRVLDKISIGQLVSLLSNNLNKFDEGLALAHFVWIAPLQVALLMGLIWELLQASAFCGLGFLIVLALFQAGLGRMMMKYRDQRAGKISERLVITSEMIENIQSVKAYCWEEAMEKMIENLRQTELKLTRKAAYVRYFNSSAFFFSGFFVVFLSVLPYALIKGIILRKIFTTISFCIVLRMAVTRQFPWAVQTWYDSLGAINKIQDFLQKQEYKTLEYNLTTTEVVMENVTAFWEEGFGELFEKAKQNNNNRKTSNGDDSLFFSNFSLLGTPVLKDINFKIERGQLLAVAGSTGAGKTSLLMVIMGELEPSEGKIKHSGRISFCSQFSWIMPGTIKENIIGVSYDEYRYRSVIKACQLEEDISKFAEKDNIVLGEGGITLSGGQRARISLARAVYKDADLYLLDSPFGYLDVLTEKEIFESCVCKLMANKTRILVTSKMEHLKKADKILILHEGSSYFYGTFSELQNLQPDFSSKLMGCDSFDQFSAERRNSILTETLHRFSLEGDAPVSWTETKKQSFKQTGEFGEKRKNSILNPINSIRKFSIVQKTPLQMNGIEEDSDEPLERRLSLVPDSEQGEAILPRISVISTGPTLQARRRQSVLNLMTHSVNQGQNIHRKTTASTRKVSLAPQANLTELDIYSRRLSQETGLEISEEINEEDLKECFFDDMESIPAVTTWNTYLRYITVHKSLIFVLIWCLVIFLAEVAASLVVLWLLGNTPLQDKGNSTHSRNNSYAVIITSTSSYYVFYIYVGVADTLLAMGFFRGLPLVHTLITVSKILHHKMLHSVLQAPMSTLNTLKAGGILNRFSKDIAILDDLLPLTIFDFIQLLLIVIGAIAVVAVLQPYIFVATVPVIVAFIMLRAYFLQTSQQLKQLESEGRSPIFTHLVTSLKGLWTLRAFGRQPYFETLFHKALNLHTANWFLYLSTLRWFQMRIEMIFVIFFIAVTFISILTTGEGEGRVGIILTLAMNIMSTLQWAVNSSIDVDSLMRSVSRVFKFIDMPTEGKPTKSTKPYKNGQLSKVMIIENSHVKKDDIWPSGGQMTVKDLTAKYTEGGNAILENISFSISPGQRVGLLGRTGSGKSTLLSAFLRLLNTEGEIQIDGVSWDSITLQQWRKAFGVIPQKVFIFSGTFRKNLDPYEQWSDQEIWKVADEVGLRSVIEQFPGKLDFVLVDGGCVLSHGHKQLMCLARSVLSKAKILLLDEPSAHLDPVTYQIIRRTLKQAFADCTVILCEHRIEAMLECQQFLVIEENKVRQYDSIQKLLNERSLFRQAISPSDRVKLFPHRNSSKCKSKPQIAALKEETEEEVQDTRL

Broadly, the EC50 is the concentration needed to bring the measured effect to its halfway point. For `Cc1ccc(-n2nc(NS(=O)(=O)c3ccccc3)c3ccc(C(C)(C)C)nc32)cc1` [Compound 44], the EC50 was less than 1000 nM and the Emax is 30 to 60%.
The corresponding values for `Cc1ccccc1-n1nc(NS(=O)(=O)c2ccccc2)c2ccc(C(C)(C)C)nc21` [Compound 45] are less than 1000 nM and 30 to 60%.
The corresponding values for `Cc1cc(C)cc(-n2nc(NS(=O)(=O)c3ccccc3)c3cc(C(C)C)cnc32)c1` [Compound 46] are less than 1000 nM and 30 to 60%.
Take `C=C(C)c1cnc2c(c1)c(NS(=O)(=O)c1ccccc1)nn2-c1cc(C)cc(C)c1` [Compound 47]: the EC50 is less than 1000 nM and the Emax lay in the range of 30 to 60%.
In the same order, the values of `Cc1cc(C)cc(-n2nc(NS(=O)(=O)c3ccccc3)c3cc(Br)cnc32)c1` [Compound 48] are less than 1000 nM and 30 to 60%.
Take `CC(C)C(C)n1nc(NS(=O)(=O)c2ccccc2)c2ccc(C(C)(C)C)nc21` (stereo not shown) [Compound 49]: the Emax is less than 30%.
With `COc1cccc(-n2nc(NS(=O)(=O)c3ccccc3)c3ccc(C(C)(C)C)nc32)c1` [Compound 50], the EC50 is less than 1000 nM and the Emax is 30 to 60%.
In the same order, the values of `COc1ccccc1-n1nc(NS(=O)(=O)c2ccccc2)c2ccc(C(C)(C)C)nc21` [Compound 51] are 1000 to 3000 nM and 30 to 60%.
Take `Cc1cc(C)c(-n2nc(NS(=O)(=O)c3ccccc3)c3cccnc32)c(C)c1` [Compound 52]: the Emax was 30 to 60%.
On to `Cc1cc(C)c(-n2nc(NS(=O)(=O)c3cccc4c3OCCO4)c3ccc(C(C)(C)C)nc32)c(C)c1` [Compound 53], for which the EC50 was less than 1000 nM and the Emax was in the range of 30 to 60%.
As for `COc1cccc(OC)c1S(=O)(=O)Nc1nn(-c2c(C)cc(C)cc2C)c2nc(C(C)(C)C)ccc12` [Compound 54], the Emax is less than 30%.
In the case of `COc1ccc(N)cc1S(=O)(=O)Nc1nn(-c2c(C)cc(C)cc2C)c2nc(C(C)(C)C)ccc12` [Compound 55], the EC50 was 3000 to 30000 nM and the Emax fell in the range of 30 to 60%.
In the case of `Cc1cc(C)c(-n2nc(NS(=O)(=O)c3ncc[nH]3)c3ccc(C(C)(C)C)nc32)c(C)c1` [Compound 56], the EC50 was 1000 to 3000 nM and the Emax was in the range of 30 to 60%.
As for `COc1cc(OC)cc(S(=O)(=O)Nc2nn(-c3c(C)cc(C)cc3C)c3nc(C(C)(C)C)ccc23)c1` [Compound 57], the Emax was less than 30%.
With `COc1ccc(OC)c(S(=O)(=O)Nc2nn(-c3c(C)cc(C)cc3C)c3nc(C(C)(C)C)ccc23)c1` [Compound 58], the EC50 is less than 1000 nM and the Emax fell in the range of 30 to 60%.
In the same order, the values of `COc1ccccc1S(=O)(=O)Nc1nn(-c2c(C)cc(C)cc2C)c2nc(C(C)(C)C)ccc12` [Compound 59] are 1000 to 3000 nM and 30 to 60%.
Consider `COc1cccc(S(=O)(=O)Nc2nn(-c3c(C)cc(C)cc3C)c3nc(C(C)(C)C)ccc23)c1` [Compound 60], for which the EC50 was less than 1000 nM and the Emax is 30 to 60%.
The corresponding values for `Cc1cc(C)c(-n2nc(NS(=O)(=O)c3cccc(N)c3)c3ccc(C(C)(C)C)nc32)c(C)c1` [Compound 61] are less than 1000 nM and 30 to 60%.
As for `Cc1cc(C)c(-n2nc(NS(=O)(=O)c3cccc(Cl)c3)c3ccc(C(C)(C)C)nc32)c(C)c1` [Compound 62], the Emax was less than 30%.
`Cc1cccc(S(=O)(=O)Nc2nn(-c3c(C)cc(C)cc3C)c3nc(C(C)(C)C)ccc23)c1` [Compound 63]: the Emax was less than 30%.
The same measure, in the same setting: the result for `COc1ccc(S(=O)(=O)Nc2nn(-c3c(C)cc(C)cc3C)c3nc(C(C)(C)C)ccc23)cc1` [Compound 64] reads less than 30%.
For `Cc1cc(C)c(-n2nc(NS(=O)(=O)c3ccc(Cl)cc3)c3ccc(C(C)(C)C)nc32)c(C)c1` [Compound 65], the Emax is less than 30%.
Consider `Cc1ccc(S(=O)(=O)Nc2nn(-c3c(C)cc(C)cc3C)c3nc(C(C)(C)C)ccc23)cc1` [Compound 66], for which the Emax is less than 30%.
The same measure, in the same setting: under `Cc1cc(C)c(-n2nc(NS(=O)(=O)c3ccccc3N)c3ccc(C(C)(C)C)nc32)c(C)c1` [Compound 67] stands less than 30%; under `Cc1cc(C)c(-n2nc(NS(=O)(=O)c3ccccc3Cl)c3ccc(C(C)(C)C)nc32)c(C)c1` [Compound 68], less than 30%.
Still for that read-out and setting: under `Cc1cc(C)c(-n2nc(NS(=O)(=O)c3ccccc3C)c3ccc(C(C)(C)C)nc32)c(C)c1` [Compound 69] stands less than 30%.
On to `Cc1ccccc1-n1nc(NS(=O)(=O)c2ccccc2)c2ccc(Br)cc21` [Compound 70, N-[6-bromo-1-(o-tolyl)indazol-3-yl]benzenesulfonamide], for which the EC50 fell in the range of 1000 to 3000 nM and the Emax was in the range of 30 to 60%.
Turning to `Cc1cc(C)c(-n2nc3nc(C(C)(C)C)ccc3c2NS(=O)(=O)c2ccccc2)c(C)c1` [Compound 71], the Emax was less than 30%.
For `C=C(C)c1ccc2c(NS(=O)(=O)c3ccccc3)nn(-c3ccccc3C)c2c1` [Compound 72, N-[6-isopropenyl-1-(o-tolyl)indazol-3-yl]benzenesulfonamide], the EC50 was 1000 to 3000 nM and the Emax was greater than 60%.
As to `Cc1ccccc1-n1nc(NS(=O)(=O)c2ccccc2)c2ccc(C(C)C)cc21` [Compound 73, N-[6-isopropyl-1-(o-tolyl)indazol-3-yl]benzenesulfonamide], the EC50 was 1000 to 3000 nM and the Emax was in the range of 30 to 60%.
With `CCn1nc(NS(=O)(=O)c2ccccc2)c2ccccc21` [Compound 74], the Emax is less than 30%.
Regarding `Cc1cccc(C)c1-c1nc(NS(=O)(=O)c2ccccc2)nc2c1CCCC2(C)c1ccccc1` (stereo not shown) [Compound 76, N-[4-(2,6-Dimethylphenyl)-8-methyl-8-phenyl-6,7-dihydro-5H-quinazolin-2-yl]benzenesulfonamide], the concentration for a half-maximal effect (EC50) is less than 1000 nM and the Emax was greater than 60%.
`Cc1cc(C)cc(-c2nc(NS(=O)(=O)c3ccccc3)cc3ccccc23)c1` [Compound 77, N-[1-(3,5-dimethylphenyl)-3-isoquinolyl]benzenesulfonamide]: the EC50 is less than 1000 nM.
On to `Cc1cc(C)cc(-c2cc(NS(=O)(=O)c3ccccc3)nc3ccccc23)c1` [Compound 78, N-[4-(3,5-Dimethylphenyl)-2-quinolyl]benzenesulfonamide], for which the Emax was less than 30%.
Take `Cc1cc(NS(=O)(=O)c2ccccc2)nc2ccccc12` [Compound 81]: the Emax was less than 30%.
On the same count and under the same terms, the result for `O=S(=O)(Nc1ccc2cc[nH]c2n1)c1ccccc1` [Compound 82] reads less than 30%.
Still for that read-out and setting: the result for `Cc1ccc(-n2ncc3c2CC(C)(C)CC3NS(=O)(=O)c2ccccc2)cc1` (stereo not shown) [Compound 83] reads less than 30%.
The same measure, in the same setting: under `CC(C)(C)C1CCc2nc(NS(=O)(=O)c3ccccc3)ncc2C1` (stereo not shown) [Compound 84] stands less than 30%.
Take `CC(C)n1c(NS(=O)(=O)c2ccccc2)nc2ccccc21` [Compound 85]: the Emax was less than 30%.
Same read-out and setting: under `Cn1c(NS(=O)(=O)c2ccccc2)nc2ccccc21` [Compound 86] stands less than 30%; under `CC(C)(C)c1ccc2c(NS(=O)(=O)c3ccccc3)cn(-c3cccc(Cl)c3)c2n1` [Compound 87], less than 30%; under `Cc1cc(C)cc(-n2cc(NS(=O)(=O)c3ccccc3)c3ccc(C(C)(C)C)nc32)c1` [Compound 88], less than 30%.
Turning to `Cc1ccccc1-n1cc(NS(=O)(=O)c2ccccc2)c2ccc(C(C)(C)C)nc21` [Compound 89], the Emax was less than 30%.
